Measured values reported in patent US10100022B2, “Sphingosine kinase inhibitors” (University of Virginia Patent Foundation, priority 2014, dated 2018).
pKi: −log10 of the molar value. Where a name gives a salt, the structure may show the parent alone.

Tests used:
[1] = biological target: T1, human sphingosine kinase type 1 (hSPHK1) (Homo sapiens, UniProt Q9NYA1); assay: Sphingosine kinase assay, recombinant human SPHK1 ([32P]S1P product, scintillation counting); type: biochemical; conditions: read-out: activity hSPHK1 (range estimate of KI)
T1 construct: made in house; host or cells: Sf9 insect cells (baculovirus)
Procedure: (§1) Recombinant baculovirus encoding human sphingosine kinase type 1 (SPHK1) was used to infect Sf9 insect cells and after 2-5 days, cleared lysates were prepared and used without further purification. Human SPHK2, which was partially purified from baculovirus-infected Sf9 cell lysates, was purchased from a commercial source. Sphingosine kinase assays were performed using standard protocols. Product [^32P]S1P was recovered by binding to cation exchange paper and quantified by scintillation counting.

[2] = biological target: T2, human sphingosine kinase type 2 (hSPHK2) (Homo sapiens, UniProt Q9NRA0); assay: Sphingosine kinase assay, recombinant human SPHK2 ([32P]S1P product, scintillation counting); type: biochemical; conditions: read-out: activity hSPHK2 (range estimate of KI)
T2 construct: purchased; host or cells: Sf9 insect cells (baculovirus)
T2 sequence (Q9NRA0 1-654): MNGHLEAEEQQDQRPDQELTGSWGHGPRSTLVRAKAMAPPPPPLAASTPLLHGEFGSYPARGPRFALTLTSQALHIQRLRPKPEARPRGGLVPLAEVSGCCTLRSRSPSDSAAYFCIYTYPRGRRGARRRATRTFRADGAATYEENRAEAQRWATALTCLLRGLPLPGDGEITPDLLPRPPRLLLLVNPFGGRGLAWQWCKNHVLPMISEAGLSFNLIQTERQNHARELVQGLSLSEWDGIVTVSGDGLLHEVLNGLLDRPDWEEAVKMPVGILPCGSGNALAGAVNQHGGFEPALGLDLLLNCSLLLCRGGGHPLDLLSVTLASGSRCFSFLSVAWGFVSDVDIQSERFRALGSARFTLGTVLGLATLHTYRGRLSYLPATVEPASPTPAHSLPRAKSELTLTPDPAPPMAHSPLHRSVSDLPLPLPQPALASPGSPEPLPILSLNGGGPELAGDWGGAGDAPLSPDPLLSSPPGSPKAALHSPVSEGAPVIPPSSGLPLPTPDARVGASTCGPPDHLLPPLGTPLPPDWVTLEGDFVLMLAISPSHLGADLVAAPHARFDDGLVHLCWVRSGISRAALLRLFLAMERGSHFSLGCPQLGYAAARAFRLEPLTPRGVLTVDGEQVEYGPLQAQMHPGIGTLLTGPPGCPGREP
Procedure: as §1

T1 sequence (Q9NYA1 whole entry): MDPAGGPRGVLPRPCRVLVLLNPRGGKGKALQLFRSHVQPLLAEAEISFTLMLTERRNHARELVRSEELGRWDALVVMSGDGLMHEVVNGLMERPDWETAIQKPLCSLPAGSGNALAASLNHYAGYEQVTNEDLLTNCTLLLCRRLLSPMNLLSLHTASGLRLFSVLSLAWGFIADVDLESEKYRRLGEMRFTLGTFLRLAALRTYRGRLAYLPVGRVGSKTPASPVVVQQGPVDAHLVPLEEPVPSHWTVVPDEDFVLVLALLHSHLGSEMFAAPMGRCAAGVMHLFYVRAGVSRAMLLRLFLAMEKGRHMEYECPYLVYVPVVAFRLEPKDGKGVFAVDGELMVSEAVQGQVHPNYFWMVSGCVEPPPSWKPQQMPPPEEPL

Row | SMILES | pKi [1] | pKi [2]
1 | CC(C)COc1ccc2cc(-c3noc([C@@H]4[C@@H](O)CCN4C(=N)N)n3)ccc2c1 [Compound 15A, Amino((2S,3S)-3-hydroxy-2-(3-(6-isobutoxynaphthalen-2-yl)-1,2,4-oxadiazol-5-yl)pyrrolidin-1-yl)methaniminium chloride] | 5.00 to 6.00 | < 5.00
2 | CCCCCCCn1ccc2c(-c3noc([C@@H]4CCCN4C(=N)N)n3)cccc21 [Compound 8B, (S)-amino(2-(3-(1-heptyl-1H-indol-4-yl)-1,2,4-oxadiazol-5-yl)pyrrolidin-1-yl)methaniminium chloride] | < 5.00 | > 6.00
3 | CCCCCCCCn1ccc2c(-c3noc([C@@H]4CCCN4C(=N)N)n3)cccc21 [Compound 9B, (S)-amino(2-(3-(1-octyl-1H-indol-4-yl)-1,2,4-oxadiazol-5-yl)pyrrolidin-1-yl)methaniminium chloride] | < 5.00 | > 6.00
4 | CCCCCCCCCCn1ccc2ccc(-c3noc([C@@H]4CCCN4C(=N)N)n3)cc21 [Compound 18A, (S)-amino(2-(3-(1-decyl-1H-indol-6-yl)-1,2,4-oxadiazol-5-yl)pyrrolidin-1-yl)methaniminium chloride] | < 5.00 | 5.00 to 6.00
5 | CCCC=CCOc1ccc(-c2noc([C@@H]3CCCN3C(=N)N)n2)cc1C(F)(F)F [Compound 80A, (S)-amino(2-(3-(4-(hex-2-en-1-yloxy)-3-(trifluoromethyl)phenyl)-1,2,4-oxadiazol-5-yl)pyrrolidin-1-yl)methaniminium 2,2,2-trifluoroacetate] | < 5.00 | 5.00 to 6.00
6 | CCCCCCCCOc1ccc(-c2noc([C@@H]3C=CCN3C(=N)N)n2)cc1C(F)(F)F [Compound 21A, (S)-amino(2-(3-(4-(octyloxy)-3-(trifluoromethyl)phenyl)-1,2,4-oxadiazol-5-yl)-2,5-dihydro-1H-pyrrol-1-yl)methaniminium chloride] | < 5.00 | > 6.00
7 | CCCCCCCCOc1ccc(-c2noc([C@@H]3C[C@@H](O)CN3C(=N)N)n2)cc1C(F)(F)F [Compound 8A, amino((2S,4R)-4-hydroxy-2-(3-(4-(octyloxy)-3-(trifluoromethyl)phenyl)-1,2,4-oxadiazol-5-yl)pyrrolidin-1-yl)methaniminium chloride] | < 5.00 | > 6.00
8 | Cc1ccc(COc2ccc3cc(-c4noc([C@@H]5CCCN5C(=N)N)n4)ccc3c2)cc1 [Compound 64A, (S)-amino(2-(3-(6-((4-methylbenzyl)oxy)naphthalen-2-yl)-1,2,4-oxadiazol-5-yl)pyrrolidin-1-yl)methaniminium chloride] | < 5.00 | < 5.00
9 | CCCCCOc1ccc2cc(-c3noc([C@@H]4CCCN4C(=N)N)n3)ccc2c1 [Compound 12A, (S)-amino(2-(3-(6-(pentyloxy)naphthalen-2-yl)-1,2,4-oxadiazol-5-yl)pyrrolidin-1-yl)methaniminium chloride] | < 5.00 | < 5.00
10 | N=C(N)N1CCC[C@H]1c1nc(-c2ccc3cc(O)ccc3c2)no1 [Compound 51A, (S)-amino(2-(3-(6-hydroxynaphthalen-2-yl)-1,2,4-oxadiazol-5-yl)pyrrolidin-1-yl)methaniminium chloride] | < 5.00 | < 5.00
11 | CCCCCCCCOc1ccc(-c2noc([C@@H]3CCCN3C(=N)N)n2)cc1Br [Compound 4B] | < 5.00 | > 6.00
12 | N=C(N)N1CCC[C@H]1c1nc(-c2ccc3cc(OCc4ccc(Cl)cc4)ccc3c2)no1 [Compound 69A, (S)-amino(2-(3-(6-((4-chlorobenzyl)oxy)naphthalen-2-yl)-1,2,4-oxadiazol-5-yl)pyrrolidin-1-yl)methaniminium chloride] | < 5.00 | < 5.00

Now from value to molecule:

Row | pKi [1] | pKi [2] | SMILES
13 | < 5.00 | > 6.00 | N=C(N)N1CCC[C@H]1c1nc(-c2ccc(OC/C=C/c3ccc(C(F)(F)F)cc3)c(C(F)(F)F)c2)no1 [Compound 88A, (S,E)-amino(2-(3-(3-(trifluoromethyl)-4-((3-(4-(trifluoromethyl)phenyl)allyl)oxy)phenyl)-1,2,4-oxadiazol-5-yl)pyrrolidin-1-yl)methaniminium 2,2,2-trifluoroacetate]
14 | < 5.00 | < 5.00 | CCCCCCCCOc1ccc(-c2noc([C@@H]3CC(F)(F)CN3C(=N)N)n2)cc1C(F)(F)F [Compound 19A, (S)-amino(4,4-difluoro-2-(3-(4-(octyloxy)-3-(trifluoromethyl)phenyl)-1,2,4-oxadiazol-5-yl)pyrrolidin-1-yl)methaniminium chloride]
15 | < 5.00 | < 5.00 | N=C(N)N1CCC[C@H]1c1nc(-c2ccc3cc(OCc4cccc(Br)c4)ccc3c2)no1 [Compound 58A, (S)-amino(2-(3-(6-((3-bromobenzyl)oxy)naphthalen-2-yl)-1,2,4-oxadiazol-5-yl)pyrrolidin-1-yl)methaniminium chloride]
16 | < 5.00 | < 5.00 | N=C(N)N1CCC[C@H]1c1nc(-c2ccc(OCCCc3ccc4c(c3)OCCO4)c(C(F)(F)F)c2)no1 [Compound 29A, (S)-amino(2-(3-(4-(3-(2,3-dihydrobenzo[b][1,4]dioxin-6-yl)propoxy)-3-(trifluoromethyl)phenyl)-1,2,4-oxadiazol-5-yl)pyrrolidin-1-yl)methaniminium chloride]
17 | < 5.00 | > 6.00 | CCCOc1ccc(CCc2ccc(-c3noc([C@@H]4CCCN4C(=N)N)n3)cc2C(F)(F)F)cc1 [Compound 94A, (S)-2-(3-(4-(4-propoxyphenethyl)-3-(trifluoromethyl)phenyl)-1,2,4-oxadiazol-5-yl)pyrrolidine-1-carboximidamide hydrochloride]
18 | < 5.00 | < 5.00 | CCCCCCCCOc1ccc(-c2noc([C@@H]3[C@H](O)CCN3C(=N)N)n2)cc1C(F)(F)F [Compound 10A, amino((2S,3R)-3-hydroxy-2-(3-(4-(octyloxy)-3-(trifluoromethyl)phenyl)-1,2,4-oxadiazol-5-yl)pyrrolidin-1-yl)methaniminium chloride]
19 | < 5.00 | < 5.00 | N=C(N)N1C[C@H](O)C[C@H]1c1nc(-c2ccc(OCCCc3ccc4c(c3)OCCO4)c(C(F)(F)F)c2)no1 [Compound 59A]
20 | < 5.00 | > 6.00 | COc1ccc(CCc2ccc(-c3noc([C@@H]4CCCN4C(=N)N)n3)cc2C(F)(F)F)cc1 [Compound 42A, (S)-2-(3-(4-(4-methoxyphenethyl)-3-(trifluoromethyl)phenyl)-1,2,4-oxadiazol-5-yl)pyrrolidine-1-carboximidamide hydrochloride]
21 | < 5.00 | > 6.00 | CCCCCCCCOc1ccc(-c2noc([C@@H]3CCCN3C(=N)N)n2)cc1C [Compound 6B]
22 | < 5.00 | > 6.00 | N=C(N)N1C[C@H](O)C[C@H]1c1nc(-c2ccc(OCCCc3ccc(C(F)(F)F)cc3)c(C(F)(F)F)c2)no1 [Compound 33A, amino((2S,4R)-4-hydroxy-2-(3-(3-(trifluoromethyl)-4-(3-(4-(trifluoromethyl)phenyl)propoxy)phenyl)-1,2,4-oxadiazol-5-yl)pyrrolidin-1-yl)methaniminium chloride]
23 | < 5.00 | < 5.00 | N=C(N)N1CCC[C@H]1c1nc(-c2ccc3cc(OCC4CCCC4)ccc3c2)no1 [Compound 66A, (S)-amino(2-(3-(6-(cyclopentylmethoxy)naphthalen-2-yl)-1,2,4-oxadiazol-5-yl)pyrrolidin-1-yl)methaniminium chloride]
24 | 5.00 to 6.00 | > 6.00 | N=C(N)N1CC[C@H](O)[C@H]1c1nc(-c2ccc(CCc3ccc(C(F)(F)F)cc3)c(C(F)(F)F)c2)no1 [Compound 40A, (2S,3S)-3-hydroxy-2-(3-(3-(trifluoromethyl)-4-(4-(trifluoromethyl)phenethyl)phenyl)-1,2,4-oxadiazol-5-yl)pyrrolidine-1-carboximidamide hydrochloride]
25 | 5.00 to 6.00 | > 6.00 | COc1ccc(CCc2ccc(-c3noc([C@@H]4[C@@H](O)CCN4C(=N)N)n3)cc2C(F)(F)F)cc1 [Compound 41A, (2S,3S)-3-hydroxy-2-(3-(4-(4-methoxyphenethyl)-3-(trifluoromethyl)phenyl)-1,2,4-oxadiazol-5-yl)pyrrolidine-1-carboximidamide hydrochloride]
26 | 5.00 to 6.00 | > 6.00 | N=C(N)N1CC[C@H](O)[C@H]1c1nc(-c2ccc(CCC3CCCC3)c(C(F)(F)F)c2)no1 [Compound 43A, (2S,3S)-2-(3-(4-(2-cyclopentylethyl)-3-(trifluoromethyl)phenyl)-1,2,4-oxadiazol-5-yl)-3-hydroxypyrrolidine-1-carboximidamide hydrochloride]
27 | 5.00 to 6.00 | > 6.00 | N=C(N)N1CC[C@H](O)[C@H]1c1nc(-c2ccc(OCCCc3ccc(Cl)c(Cl)c3)c(C(F)(F)F)c2)no1 [Compound 28A]
